Laboratory results taken from US20260262643A1, “HERBICIDAL BENZOXAZINES” (FMC CORPORATION, priority 2022, published 2026).

Assays:
oat, wild [1] = assay: Test C postemergence; assay type: in vivo, Avena fatua; details: 10 days, 0 to 100 scale (0 no effect, 100 complete control)
Summary of the method: (§1)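 Visual injury ratings on a 0–100 scale (100 = complete control) were made against untreated controls 10 days after treatment in the greenhouse. Compounds, formulated with surfactant in non-phytotoxic solvent, were sprayed on soil preemergence or onto one- to two-leaf plants 2–10 cm tall postemergence.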

kochia [2] = assay: Test C postemergence; assay type: in vivo, Bassia scoparia; details: 10 days, 0 to 100 scale (0 no effect, 100 complete control)
Summary of the method: as §1

blackgrass [3] = assay: Test C postemergence; assay type: in vivo, Alopecurus myosuroides; details: 10 days, 0 to 100 scale (0 no effect, 100 complete control)
Summary of the method: as §1

barnyardgrass [4] = assay: Test C preemergence; assay type: in vivo, Echinochloa crusgalli
Summary of the method: as §1

ragweed [5] = assay: Test C postemergence; assay type: in vivo, Ambrosia artemisiifolia; details: 10 days, 0 to 100 scale (0 no effect, 100 complete control)
Summary of the method: as §1

galium = assay: Test C postemergence; assay type: in vivo, Galium aparine; details: 10 days, 0 to 100 scale (0 no effect, 100 complete control)
Summary of the method: as §1

pigweed, palmer [6] = assay: Test C preemergence; assay type: in vivo, Amaranthus palmeri
Summary of the method: as §1

ryegrass, Italian [7] = assay: Test C postemergence; assay type: in vivo, Lolium multiflorum; details: 10 days, 0 to 100 scale (0 no effect, 100 complete control)
Summary of the method: as §1

ducksalad = assay: Test D flooded paddy test; assay type: in vivo, Heteranthera limosa; details: 250 g ai/ha, applied to paddy water, visual rating after 13 to 14 days, scale 0 to 100 (0 no effect, 100 complete control)
Summary of the method: (§2)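 Post-flood water application at the 2-leaf stage; 3 cm flood depth kept constant; visual control rating 0–100 after 13–14 days greenhouse growth.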

oat, wild [8] = assay: Test C preemergence; assay type: in vivo, Avena fatua
Summary of the method: as §1

wheat [9] = assay: Test C preemergence; assay type: in vivo, Triticum aestivum
Summary of the method: as §1

corn [10] = assay: Test C postemergence; assay type: in vivo, Zea mays; details: 10 days, 0 to 100 scale (0 no effect, 100 complete control)
Summary of the method: as §1

rice = assay: Test D flooded paddy test; assay type: in vivo, Oryza sativa; details: 250 g ai/ha, applied to paddy water, visual rating after 13 to 14 days, scale 0 to 100 (0 no effect, 100 complete control)
Summary of the method: as §2

foxtail, giant [11] = assay: Test C postemergence; assay type: in vivo, Setaria faberi; details: 10 days, 0 to 100 scale (0 no effect, 100 complete control)
Summary of the method: as §1

soybean [12] = assay: Test C preemergence; assay type: in vivo, Glycine max
Summary of the method: as §1

blackgrass [13] = assay: Test C preemergence; assay type: in vivo, Alopecurus myosuroides
Summary of the method: as §1

corn [14] = assay: Test C preemergence; assay type: in vivo, Zea mays
Summary of the method: as §1

horseweed = assay: Test C postemergence; assay type: in vivo, Erigeron canadensis; details: 10 days, 0 to 100 scale (0 no effect, 100 complete control)
Summary of the method: as §1

wheat [15] = assay: Test C postemergence; assay type: in vivo, Triticum aestivum; details: 10 days, 0 to 100 scale (0 no effect, 100 complete control)
Summary of the method: as §1

ragweed [16] = assay: Test C preemergence; assay type: in vivo, Ambrosia artemisiifolia
Summary of the method: as §1

foxtail, giant [17] = assay: Test C preemergence; assay type: in vivo, Setaria faberi
Summary of the method: as §1

pigweed, palmer [18] = assay: Test C postemergence; assay type: in vivo, Amaranthus palmeri; details: 10 days, 0 to 100 scale (0 no effect, 100 complete control)
Summary of the method: as §1

ryegrass, Italian [19] = assay: Test C preemergence; assay type: in vivo, Lolium multiflorum
Summary of the method: as §1

kochia [20] = assay: Test C preemergence; assay type: in vivo, Bassia scoparia
Summary of the method: as §1

barnyardgrass [21] = assay: Test C postemergence; assay type: in vivo, Echinochloa crusgalli; details: 10 days, 0 to 100 scale (0 no effect, 100 complete control)
Summary of the method: as §1

sedge, umbrella = assay: Test D flooded paddy test; assay type: in vivo, Cyperus difformis; details: 250 g ai/ha, applied to paddy water, visual rating after 13 to 14 days, scale 0 to 100 (0 no effect, 100 complete control)
Summary of the method: as §2

soybean [22] = assay: Test C postemergence; assay type: in vivo, Glycine max; details: 10 days, 0 to 100 scale (0 no effect, 100 complete control)
Summary of the method: as §1

barnyardgrass [23] = assay: Test D flooded paddy test; assay type: in vivo, Echinochloa crus-galli; details: 250 g ai/ha, applied to paddy water, visual rating after 13 to 14 days, scale 0 to 100 (0 no effect, 100 complete control)
Summary of the method: as §2

[24] = 500 g ai/ha, preemergence, 0 to 100 scale (0 no effect, 100 complete control)
[25] = Preemergence, 125 g ai/ha, 0 to 100 scale, 0 no effect, 100 complete control

Cc1cccc2c1OC(C(F)(F)F)CN2C(=O)c1ccnc(-n2cnc(C(C)(C)C)n2)c1 (stereo not shown) [Compound 319]
Plant response rating, Oat, Wild (oat, wild [1]; 500 g ai/ha, postemergence): 30
Plant response rating, Oat, Wild (oat, wild [1]; Postemergence, 125 g ai/ha): 0
Plant response rating, Kochia (kochia [2]; 500 g ai/ha, postemergence): 90
Plant response rating, Kochia (kochia [2]; Postemergence, 125 g ai/ha): 40
Plant response rating, Blackgrass (blackgrass [3]; 500 g ai/ha, postemergence): 80
Plant response rating, Blackgrass (blackgrass [3]; Postemergence, 125 g ai/ha): 10
Barnyardgrass plant response rating (barnyardgrass [4]; [24]): 90
Plant response rating, Barnyardgrass (barnyardgrass [4]; [25]): 40
Plant response rating, Ragweed (ragweed [5]; 500 g ai/ha, postemergence): 70
Plant response rating, Ragweed (ragweed [5]; Postemergence, 125 g ai/ha): 0
Plant response rating, Galium (galium; 500 g ai/ha, postemergence): 70
Plant response rating, Galium (galium; Postemergence, 125 g ai/ha): 60
Pigweed, Palmer plant response rating (pigweed, palmer [6]; [24]): 90
Plant response rating, Pigweed, Palmer (pigweed, palmer [6]; [25]): 80
Plant response rating, Ryegrass, Italian (ryegrass, Italian [7]; 500 g ai/ha, postemergence): 50
Plant response rating, Ryegrass, Italian (ryegrass, Italian [7]; Postemergence, 125 g ai/ha): 30
Plant response rating, Ducksalad (Flood) (ducksalad): 0
Oat, Wild plant response rating (oat, wild [8]; [24]): 40
Plant response rating, Oat, Wild (oat, wild [8]; [25]): 20
Wheat plant response rating (wheat [9]; [24]): 30
Plant response rating, Wheat (wheat [9]; [25]): 0
Plant response rating, Corn (corn [10]; 500 g ai/ha, postemergence): 50
Plant response rating, Corn (corn [10]; Postemergence, 125 g ai/ha): 20
Plant response rating, Rice (Flood) (rice): 0
Plant response rating, Foxtail, Giant (foxtail, giant [11]; 500 g ai/ha, postemergence): 80
Plant response rating, Foxtail, Giant (foxtail, giant [11]; Postemergence, 125 g ai/ha): 30
Soybean plant response rating (soybean [12]; [24]): 100
Plant response rating, Soybean (soybean [12]; [25]): 20
Blackgrass plant response rating (blackgrass [13]; [24]): 70
Plant response rating, Blackgrass (blackgrass [13]; [25]): 50
Corn plant response rating (corn [14]; [24]): 20
Plant response rating, Corn (corn [14]; [25]): 0
Plant response rating, Horseweed (horseweed; 500 g ai/ha, postemergence): 30
Plant response rating, Horseweed (horseweed; Postemergence, 125 g ai/ha): 0
Plant response rating, Wheat (wheat [15]; 500 g ai/ha, postemergence): 10
Plant response rating, Wheat (wheat [15]; Postemergence, 125 g ai/ha): 10
Ragweed plant response rating (ragweed [16]; [24]): 0
Plant response rating, Ragweed (ragweed [16]; [25]): 0
Foxtail, Giant plant response rating (foxtail, giant [17]; [24]): 100
Plant response rating, Foxtail, Giant (foxtail, giant [17]; [25]): 100
Plant response rating, Pigweed, Palmer (pigweed, palmer [18]; 500 g ai/ha, postemergence): 80
Plant response rating, Pigweed, Palmer (pigweed, palmer [18]; Postemergence, 125 g ai/ha): 30
Ryegrass, Italian plant response rating (ryegrass, Italian [19]; [24]): 100
Plant response rating, Ryegrass, Italian (ryegrass, Italian [19]; [25]): 100
Kochia plant response rating (kochia [20]; [24]): 0
Plant response rating, Kochia (kochia [20]; [25]): 0
Plant response rating, Barnyardgrass (barnyardgrass [21]; 500 g ai/ha, postemergence): 60
Plant response rating, Barnyardgrass (barnyardgrass [21]; Postemergence, 125 g ai/ha): 10
Plant response rating, Sedge, Umbrella (Flood) (sedge, umbrella): 0
Plant response rating, Soybean (soybean [22]; 500 g ai/ha, postemergence): 100
Plant response rating, Soybean (soybean [22]; Postemergence, 125 g ai/ha): 100
Plant response rating, Barnyardgrass (Flood) (barnyardgrass [23]): 0
